Measurements reported in patent US20150183737A1, “COMPOSITIONS AND METHODS FOR SUBSTRATE-SELECTIVE INHIBITION OF ENDOCANNABINOID OXYGENATION” (Vanderbilt University, priority 2012, published 2015).
“Also recorded” adds a separate entry of the source.

What was measured:
[1] = test system: peripheral tissue eCB, NAE, MAG and PG levels; assay: Peripheral tissue NAE, MAG and PG levels after i.p. injection; format: in vivo, mice
Description: Mice were sacrificed by cervical dislocation and decapitation. The brain, lungs, liver, stomach, small intestines, and kidneys were then rapidly removed and frozen on a metal block in dry ice. The tissue was then placed in a tube and stored at −80° C. until extraction, usually one day after harvesting. For PG and eCB analysis, lipid extraction from tissue was carried out as described in Patel et al., 2009.
Analytes were quantified using LC-MS/MS on a Quantum triple-quadrupole mass spectrometer in positive-ion mode using selected reaction monitoring. Detection of eicosanoids was performed as described in Kingsley & Marnett, 2007. For fatty acid analysis the mobile phases used were 80 μM AgOAc with 0.1% (v/v) acetic acid in H2O (solvent A) and 120 μM AgOAc with 0.1% (v/v) acetic acid in MeOH (solvent B). The analytes were eluted using a gradient from 20% A to 99% B over 5 minutes. The transitions used were m/z 300→282 for PEA, m/z 328→310 for SEA, m/z 434→416 for OEA, m/z 456→438 for AEA, m/z 464→446 for AEA-d8, m/z 331→257 for 2-PG, m/z 359→285 for 2-SG, m/z 463→389 for 2-OG, m/z 485→411 for 2-AG, m/z 493→419 for 2-AG-d8, m/z 519→409 for AA, and m/z 527→417 for AA-d8. Peak areas for the analytes were normalized to the appropriate internal standard and then normalized to tissue mass for in vivo samples. […]

[2] = test system: brain eCB, AA and PG levels; assay: Brain eCB, NAE, MAG, AA and PG levels after i.p. injection; format: in vivo, mice
[3] = Gastrointestinal hemorrhage; settings: in vivo
ICR mice [4] = assay: Light-dark box; format: in vivo
[5] = Detection of Compound A in brain extract; settings: 2 hours after i.p. injection, LC-MS/MS
ICR mice [6] = assay: Elevated plus-maze (EPM); format: in vivo; settings: 10 mg/kg
human MGL-His (MAGL) = target: T1, human MGL-His (MAGL) (Homo sapiens, UniProt Q99685); assay: MAGL activity (Compound A); format: biochemical; settings: in vitro
T1 construct: His; made in house; host or cells: E. coli BL21(DE3) pLysS
T1 sequence (Q99685 1-303): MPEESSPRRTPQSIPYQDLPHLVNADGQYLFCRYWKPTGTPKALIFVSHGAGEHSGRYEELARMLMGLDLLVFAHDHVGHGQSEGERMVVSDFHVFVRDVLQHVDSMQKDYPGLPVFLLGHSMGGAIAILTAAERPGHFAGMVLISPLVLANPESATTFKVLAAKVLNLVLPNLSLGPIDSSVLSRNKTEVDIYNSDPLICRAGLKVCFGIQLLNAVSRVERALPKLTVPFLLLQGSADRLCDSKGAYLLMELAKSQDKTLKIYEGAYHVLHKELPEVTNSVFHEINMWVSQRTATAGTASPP

[7] = 10 mg/kg, two hours after injection
[8] = 10 mg/kg i.p. (Compound A: any dose tested), 2 hours
[9] = 2 hours after i.p administration, dose not stated

SMILES: COc1ccc2c(c1)c(CC(=O)N1CCOCC1)c(C)n2C(=O)c1ccc(Cl)cc1 [Compound A, 2-[1-(4-Chloro-benzoyl)-5-methoxy-2-methyl-1H-indol-3-yl]-1-morpholin-4-yl-ethanone]
- AEA levels in the kidney [1, 7]: significantly increased
- AEA levels in the lung [1, 7]: significantly increased
- AEA levels in the small intestine [1, 7]: significantly increased
- AEA levels in the stomach [1, 7]: significantly increased
- Liver NAE levels ([1]; liver): did not affect
- 2-AG or any other MAG in any tissue ([1]; peripheral tissues, 10 mg/kg): no effect
- Levels of any other NAE in any tissue ([1]; peripheral tissues, 10 mg/kg): did not affect
- PG levels in peripheral tissues ([1]; stomach, heart, kidney, lung, intestine): no effect
- Whole brain AEA levels ([2]; 3 mg/kg i.p., 2 hours, male ICR mice): significantly increased
- Brain 2-AG levels in wild type littermates of COX-2 knockout mice ([2]; 10 mg/kg): significantly increased
- Brain 2-AG levels, meta-analysis of 12 cohorts ([2]; 10 mg/kg): 109 % of vehicle
- Brain AA or PG levels in WT or COX-2^(−/−) mice ([2]; 10 mg/kg): did not affect
- Brain AEA levels in wild type littermates of COX-2 knockout mice ([2]; 10 mg/kg): significantly increased
- Brain AEA, meta-analysis of 12 cohorts ([2]; 10 mg/kg): 139 % of vehicle
- Brain levels of MAGs other than 2-AG ([2]; 10 mg/kg): did not affect
- Brain AA levels [2, 8]: did not significantly affect
- Brain PG levels [2, 8]: did not affect
- Brain 2-AG levels ([2]; 10 mg/kg i.p. (highest dose), 2 hours, vs vehicle): non-significant trend to increase; also recorded: significantly increased
- Brain levels of NAEs other than AEA ([2]; 10 mg/kg i.p., 2 hours): not any other NAE; also recorded: no other NAE
- Brain AEA levels ([2]; 10 mg/kg i.p., 2 hours, vs vehicle): significantly increased
- Brain 2-AG levels (Example 8) [2, 9]: without affecting
- Brain AEA levels (Example 8) [2, 9]: increased
- Brain 2-AG levels after JZL-184 treatment, compared to JZL-184 alone ([2]; combination treatment): additional significant increase
- Brain AEA levels when combined with PF-3845, compared to PF-3845 alone ([2]; combination treatment): significant additional increase
- Brain or lung PG levels (Example 8) ([2]; dose not stated): did not affect
- Brain AEA and 2-AG levels in CB1^(−/−) mice ([2]; mouse, in vivo): significantly increased
- Brain PG levels in CB1^(−/−) mice ([2]; mouse, in vivo): no effect; also recorded: without affecting
- Ability to increase brain AEA levels in COX-2 knockout (KO) mice ([2]; present in wild type littermates): absent
- Brain AEA levels in WT and FAAH KO mice ([2]; similar extent in both genotypes): increased
- Gastrointestinal hemorrhage [3]: not to cause gastrointestinal hemorrhage
- Light-zone time (ICR mice [4]; 10 mg/kg): significantly increased
- Number of light-zone entries (ICR mice [4]; 10 mg/kg): significantly increased
- Overall locomotor activity in the light-dark box (ICR mice [4]; 10 mg/kg): without significantly affecting
- Anxiolytic effects in the light-dark box with Rimonabant (ICR mice [4]; Rimonabant 3 mg/kg): blocked
- Indomethacin in brain extract after Compound A treatment [5]: not detected
- Presence of compound in brain [5]: present in the brain
- Open arm latency (ICR mice [6]): significantly reduced; also recorded: decreased
- Other EPM parameters (open arm time, total distance traveled) (ICR mice [6]): did not affect; also recorded: did not increase
- Inhibition of MAGL (human MGL-His (MAGL)): did not inhibit
